How the values were obtained:
[1] = test system: rabbit serum obtained by immunizing a rabbit with the SARS-CoV strain Frankfurt 1; type: binding; set-up: Binding of a rabbit serum to linear peptides / Binding of a rabbit serum to looped peptides / Rabbit serum linear peptides / Rabbit serum looped peptides / Binding of a rabbit serum to linear peptides of protein N of SARS-CoV Urbani (Rabbit serum linear peptides) / Binding of a rabbit serum to looped/cyclic peptides of protein N of SARS-CoV Urbani (Rabbit serum looped peptides): unit not given here
[2] = test system: control sera (pooled serum of ten healthy LUMC hospital workers; commercial negative donor pooled serum from the Dutch bloodbank); type: binding, human; set-up: Binding of Control serum LUMC to linear peptides / Binding of Control serum Blood-bank to linear peptides / Binding of Control serum LUMC to looped peptides / Binding of Control Serum Blood-Bank to Looped peptides / Binding of Control serum LUMC to linear peptides of the protein M of SARS-CoV Urbani / Binding of Control serum Blood-bank to linear peptides of the protein M of SARS-CoV Urbani / Binding of Control serum LUMC to looped peptides of the protein M of SARS-CoV Urbani / Binding of Control Serum Blood-Bank to Looped peptides of the protein M of SARS-CoV Urbani: unit not given here
[3] = test system: antibodies in sera from SARS patients (sera 1a, 1b, 2, 6, 37, 62, London, SARS-yellow, SARS-green); type: binding, human; set-up: Binding of serum 6 to linear peptides of protein X1 of SARS-CoV Urbani / Binding of serum 37 to linear peptides of protein X1 of SARS-CoV Urbani / Binding of serum 6 to looped/cyclic peptide (PEPSCAN-ELISA) / Binding of serum 37 to looped/cyclic peptide (PEPSCAN-ELISA) / Binding of serum 37 to looped/cyclic peptides of protein X1 of SARS-CoV Urbani / Binding of serum 6 to linear peptides of protein X2 / Binding of serum 37 to linear peptides of protein X2 / Binding of serum 37 to looped/cyclic peptides of protein X2 of SARS-CoV Urbani / Binding of serum 6 to linear peptides of protein M of SARS-CoV Urbani / Binding of serum 37 to linear peptides of protein M of SARS-CoV Urbani / Binding of serum 6 to looped/cyclic peptides of protein M of SARS-CoV Urbani / Binding of serum 37 to looped/cyclic peptides of protein M of SARS-CoV Urbani / Binding of serum 6 to linear peptides of protein X3 of SARS-CoV Urbani / Binding of serum 37 to linear peptides of protein X3 of SARS-CoV Urbani / Binding of serum 37 to looped/cyclic peptides of protein X3 of SARS-CoV Urbani / Binding of serum 6 to linear peptides of protein X4 of SARS-CoV Urbani / Binding of serum 37 to linear peptides of protein X4 of SARS-CoV Urbani / Binding of serum 37 to looped/cyclic peptides of protein X4 of SARS-CoV Urbani / Binding of serum 6 to linear peptides of protein X5 of SARS-CoV Urbani / Binding of serum 37 to linear peptides of protein X5 of SARS-CoV Urbani / Binding of serum 37 to looped/cyclic peptides of protein X5 of SARS-CoV Urbani / Binding of serum 6 to linear peptides of protein N of SARS-CoV Urbani / Binding of serum 37 to linear peptides of protein N of SARS-CoV Urbani / Binding of serum 6 to linear peptide (PEPSCAN-ELISA) / Binding of serum 1a to looped/cyclic peptides of protein N of SARS-CoV Urbani / Binding of serum 1b to looped/cyclic peptides of protein N of SARS-CoV Urbani / Binding of serum 2 to looped/cyclic peptides of protein N of SARS-CoV Urbani / Binding of serum 6 to looped/cyclic peptides of protein N of SARS-CoV Urbani / Binding of serum 37 to looped/cyclic peptides of protein N of SARS-CoV Urbani / Binding of serum 62 to looped/cyclic peptides of protein N of SARS-CoV Urbani / Binding of serum London to looped/cyclic peptides of protein N of SARS-CoV Urbani / Binding of serum SARS-green to looped/cyclic peptides of protein N of SARS-CoV Urbani: unit not given here

Sequence	Binding of a rabbit serum to linear peptides [1]	Binding of a rabbit serum to looped peptides [1]	Binding of Control Serum Blood-Bank to Looped peptides [2]	Binding of Control serum Blood-bank to linear peptides [2]	Binding of Control serum LUMC to linear peptides [2]	Binding of Control serum LUMC to looped peptides [2]	Binding of serum 1a to looped/cyclic peptide (PEPSCAN-ELISA) [3]	Binding of serum 1b to looped/cyclic peptide (PEPSCAN-ELISA) [3]	Binding of serum 2 to looped/cyclic peptide (PEPSCAN-ELISA) [3]	Binding of serum 6 to looped/cyclic peptide (PEPSCAN-ELISA) [3]	Binding of serum 37 to looped/cyclic peptide (PEPSCAN-ELISA) [3]	Binding of serum 62 to looped/cyclic peptide (PEPSCAN-ELISA) [3]	Binding of serum London to looped/cyclic peptide (PEPSCAN-ELISA) [3]	Binding of serum SARS-green to looped/cyclic peptide (PEPSCAN-ELISA) [3]	Binding of serum SARS-yellow to looped/cyclic peptide (PEPSCAN-ELISA) [3]	also measured
CWLCWKCKSKNPLLY	0.2	0.7	0.6	0.9	0.7	0.7	0.7	0.4	0.5	0.7	0.7	0.7	0.3	0.3	0.5	Recognition of the peptide by sera of SARS-CoV infected individuals, and form (linear, looped/cyclic) in which it is recognized [3]: recognized in linear form
DGTRHTYQLRARSVS	–	–	0.8	0.6	0.5	0.7	–	–	–	–	–	–	–	–	–	Recognition of the peptide by the rabbit serum [1]: recognized; Binding of serum 1a to linear peptides of protein X4 of SARS-CoV Urbani [3]: 0.6; Binding of serum 1a to looped/cyclic peptides of protein X4 of SARS-CoV Urbani [3]: 0.8; Binding of serum 1b to linear peptides of protein X4 of SARS-CoV Urbani [3]: 0.5; Binding of serum 1b to looped/cyclic peptides of protein X4 of SARS-CoV Urbani [3]: 0.5; Binding of serum 2 to linear peptides of protein X4 of SARS-CoV Urbani [3]: 0.8; Binding of serum 2 to looped/cyclic peptides of protein X4 of SARS-CoV Urbani [3]: 0.8; Binding of serum 6 to linear peptides of protein X4 of SARS-CoV Urbani [3]: 0.8; Binding of serum 6 to looped/cyclic peptides of protein X4 of SARS-CoV Urbani [3]: 0.8; Binding of serum 37 to linear peptides of protein X4 of SARS-CoV Urbani [3]: 0.8; Binding of serum 37 to looped/cyclic peptides of protein X4 of SARS-CoV Urbani [3]: 0.7; Binding of serum 62 to linear peptides of protein X4 of SARS-CoV Urbani [3]: 0.7; Binding of serum 62 to looped/cyclic peptides of protein X4 of SARS-CoV Urbani [3]: 0.7; Binding of serum London to linear peptides of protein X4 of SARS-CoV Urbani [3]: 0.7; Binding of serum London to looped/cyclic peptides of protein X4 of SARS-CoV Urbani [3]: 0.4; Binding of serum SARS-green to linear peptides of protein X4 of SARS-CoV Urbani [3]: 0.4; Binding of serum SARS-green to looped/cyclic peptides of protein X4 of SARS-CoV Urbani [3]: 0.6; Binding of serum SARS-yellow to linear peptides of protein X4 of SARS-CoV Urbani [3]: 0.5; Binding of serum SARS-yellow to looped/cyclic peptides of protein X4 of SARS-CoV Urbani [3]: 0.7
DLFMRFFTLGSITAQ	0.1	0.3	0.5	0.6	0.6	0.5	0.5	0.3	0.3	0.3	0.5	0.5	0.2	0.2	0.2	Binding of serum 1a to linear peptides of protein X1 of SARS-CoV Urbani [3]: 0.7; Binding of serum 1b to linear peptides of protein X1 of SARS-CoV Urbani [3]: 0.5; Binding of serum 2 to linear peptides of protein X1 of SARS-CoV Urbani [3]: 0.4; Binding of serum 6 to linear peptides of protein X1 of SARS-CoV Urbani [3]: 0.1; Binding of serum 37 to linear peptides of protein X1 of SARS-CoV Urbani [3]: 0.6; Binding of serum 62 to linear peptides of protein X1 of SARS-CoV Urbani [3]: 0.5; Binding of serum London to linear peptides of protein X1 of SARS-CoV Urbani [3]: 0.2; Binding of serum SARS-green to linear peptides of protein X1 of SARS-CoV Urbani [3]: 0.2; Binding of serum SARS-yellow to linear peptides of protein X1 of SARS-CoV Urbani [3]: 0.4
